Data as given in US20110008347A1, “CANCER-RELATED PROTEIN KINASES” (Agency for Science ,Technology and Research, priority 2006, published 2011).

Tests used:
[1] = test system: HuH7 cells; experiment: AFP production in HuH7 cells after exposure to FGFR inhibitor; format: cell-based, human; conditions: HuH7, 0, 1, 5 and 10 μM (FIG. 15)
Description: (§1) Supernatants from the respective FGF19 stimulation and siRNA experiments were subjected to AFP ELISA assay using the DELFIA hAFP kit (Perkin Elmer, Boston, Mass.), performed according to manufacturer's protocol. The readout was converted to concentration (ng/mL) using the standard curve derived from the solutions provided in the kit. AFP production by the cells was subsequently normalized to the number of cells in each well. The cell number was determined by ATP bioluminescence Cell-Titer Glo assay (Promega, Madison, Wis.) using protocol as described by the manufacturer.

[2] = test system: HuH7; experiment: Viability of HCC cell lines (HuH7) exposed to FGFR inhibitor; format: cell-based, human
[3] = test system: HEK293; experiment: Viability of non-cancerous cell line HEK293 exposed to FGFR inhibitor; format: cell-based; conditions: non-cancerous cell line HEK293, data not shown
[4] = molecular target: T1, FGFR4 (Homo sapiens, UniProt P22455); experiment: FGF19 ligand stimulation, AFP ELISA, HepG2; format: cell-based; design: endogenous in cells; conditions: HepG2, 50 and 100 ng/ml FGF19 (FIG. 12)
T1 sequence (P22455 22-802): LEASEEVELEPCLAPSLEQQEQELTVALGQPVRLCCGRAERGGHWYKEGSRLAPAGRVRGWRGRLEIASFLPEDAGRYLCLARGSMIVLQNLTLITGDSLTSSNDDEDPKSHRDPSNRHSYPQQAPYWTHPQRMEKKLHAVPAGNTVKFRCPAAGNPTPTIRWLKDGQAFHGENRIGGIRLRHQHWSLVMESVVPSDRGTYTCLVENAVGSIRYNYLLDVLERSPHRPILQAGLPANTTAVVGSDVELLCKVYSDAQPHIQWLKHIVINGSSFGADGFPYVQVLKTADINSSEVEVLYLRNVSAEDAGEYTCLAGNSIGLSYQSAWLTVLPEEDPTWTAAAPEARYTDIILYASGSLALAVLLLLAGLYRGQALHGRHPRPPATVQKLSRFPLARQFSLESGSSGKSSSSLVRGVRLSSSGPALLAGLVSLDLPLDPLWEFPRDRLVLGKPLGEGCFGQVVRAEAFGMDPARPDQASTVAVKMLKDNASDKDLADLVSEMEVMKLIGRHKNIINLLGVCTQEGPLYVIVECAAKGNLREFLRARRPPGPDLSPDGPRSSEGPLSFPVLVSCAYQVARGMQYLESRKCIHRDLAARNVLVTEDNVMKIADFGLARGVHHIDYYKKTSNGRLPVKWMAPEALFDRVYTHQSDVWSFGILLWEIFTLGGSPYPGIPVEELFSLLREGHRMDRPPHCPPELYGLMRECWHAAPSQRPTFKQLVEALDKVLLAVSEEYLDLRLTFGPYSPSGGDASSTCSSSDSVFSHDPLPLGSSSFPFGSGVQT
Description: (§2) HepG2 or HuH7 cells were seeded into 96-well plates and allowed to attach overnight. They were serum-starved for 24 h before addition of heparin. Two hours later, FGF19 (R&D Systems, Minneapolis, Minn., 50-100 ng/mL final concentration) was administered. After 8 hours, aliquots of the supernatant were harvested for AFP ELISA assay as described below. Similar FGF19 stimulations were performed in 10 cm dishes for immunoblot detection of phospho-FRS2α.
as §1

[5] = molecular target: T1, FGFR4; experiment: FGF19 ligand stimulation, AFP ELISA, HuH7; format: cell-based; design: stimulation of FGFR4 in the HCC cell line HuH7 using 50 and 100 ng/ml of the specific ligand FGF19; endogenous in cells; host or cells: HuH7
Description: as §2, §1

AFP production [4] | AFP production ([5]; HCC cell lines (FIG. 11, FIG. 12)) | AFP production ([5]; HuH7, 50 and 100 ng/ml FGF19 (FIG. 11)) | Molecule | AFP production [1] | anti-proliferative effect ([2]; HCC cell lines vs. non-cancerous cell line HEK293) | anti-proliferative effect (viability) ([2]; HuH7 (FIG. 16)) | LD50 [3]
 |  |  | CCN(CC)CCCCNc1ncc2cc(-c3cc(OC)cc(OC)c3)c(NC(=O)NC(C)(C)C)nc2n1 [PD173074] | blocks AFP production | exquisite anti-proliferative effect | exquisite anti-proliferative effect | > 50 µM
elevated AFP production | elevated AFP production | elevated AFP production | FGF19: specific ligand used for stimulation of FGFR4 (R&D Systems) |  |  |  | 
